Source: ChEMBL document CHEMBL1201862, “PubChem BioAssay data set” (2004)
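Method: 48-hour compound exposure of cells in 96-well plates, five concentrations, linear interpolation of endpoints. At the GI50, growth is halved.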 Calls of active or inactive are those of the source. No stated cut-off is given here; in the data, active = GI50 up to about 1.1 µM and inactive = higher.

Experiments:
Experiment in all cases: NCI anticancer screen, dose series, 48 h
MDA-MB-435 = system: MDA-MB-435
U-251 = system: U-251
K562 = system: K562
NCI-H460 = system: NCI-H460
HOP-92 = system: HOP-92
SW-620 = system: SW-620
OVCAR-4 = system: OVCAR-4
UO-31 = system: UO-31
HOP-62 = system: HOP-62
MCF7 = system: MCF7
EKVX = system: EKVX
SF-268 = system: SF-268
RXF 393 = system: RXF 393
MDA-MB-231 = system: MDA-MB-231
HT-29 = system: HT-29
M14 = system: M14
NCI/ADR-RES = system: NCI/ADR-RES
CAKI-1 = system: CAKI-1
NCI-H522 = system: NCI-H522
NCI-H226 = system: NCI-H226

| SMILES | GI50 (MDA-MB-435) | GI50 (U-251) | GI50 (K562) | GI50 (NCI-H460) | GI50 (HOP-92) | GI50 (SW-620) | GI50 (OVCAR-4) | GI50 (UO-31) | GI50 (HOP-62) | GI50 (MCF7) | GI50 (EKVX) | GI50 (SF-268) | GI50 (RXF 393) | GI50 (MDA-MB-231) | GI50 (HT-29) | GI50 (M14) | GI50 (NCI/ADR-RES) | GI50 (CAKI-1) | GI50 (NCI-H522) | GI50 (NCI-H226) |
| --- | --- | --- | --- | --- | --- | --- | --- | --- | --- | --- | --- | --- | --- | --- | --- | --- | --- | --- | --- | --- |
| CC[N+](CC)(CCNCC(N)=O)CC(N)=O | > 10 µM (inactive) | > 10 µM (inactive) | > 10 µM (inactive) | > 10 µM (inactive) | > 10 µM (inactive) | > 10 µM (inactive) | > 10 µM (inactive) | > 10 µM (inactive) | > 10 µM (inactive) | > 10 µM (inactive) | > 10 µM (inactive) | > 10 µM (inactive) | > 10 µM (inactive) | > 10 µM (inactive) | > 10 µM (inactive) | > 10 µM (inactive) | > 10 µM (inactive) | > 10 µM (inactive) | > 10 µM (inactive) | > 10 µM (inactive) |
| COc1ccc(/C=C/c2cc(O)cc(OC)c2)cc1 | 68.4 µM (inactive) | 28.7 µM (inactive) | 67.9 µM (inactive) | 84.5 µM (inactive) | 50.7 µM (inactive) | > 100 µM (inactive) | > 100 µM (inactive) | > 100 µM (inactive) | > 100 µM (inactive) | > 100 µM (inactive) | 55.3 µM (inactive) | > 100 µM (inactive) | > 100 µM (inactive) | 27.8 µM (inactive) | > 100 µM (inactive) | > 100 µM (inactive) | > 100 µM (inactive) | > 100 µM (inactive) | 65.3 µM (inactive) | > 100 µM (inactive) |
| COC(=O)CNC(=O)CCSc1nnc(COc2ccc(Cl)cc2)n1-c1ccccc1 | 24.1 µM (inactive) | 64.3 µM (inactive) | 30.3 µM (inactive) | 31.4 µM (inactive) | 33.6 µM (inactive) | 39.5 µM (inactive) | 61.1 µM (inactive) | 34.8 µM (inactive) | > 100 µM (inactive) | 71.3 µM (inactive) | 59.6 µM (inactive) | 20.3 µM (inactive) | 25.8 µM (inactive) | 21 µM (inactive) | 27.5 µM (inactive) | 23.4 µM (inactive) | 42.6 µM (inactive) | 12 µM (inactive) | 15.4 µM (inactive) | 16 µM (inactive) |
| Cc1ccc(C2=Nc3c(c(C)nn3-c3ccccc3)N=C(C(=O)O)C2)cc1 | > 10 µM (inactive) | > 10 µM (inactive) | > 10 µM (inactive) | > 10 µM (inactive) | > 10 µM (inactive) | > 10 µM (inactive) | > 10 µM (inactive) | > 10 µM (inactive) | > 10 µM (inactive) | > 10 µM (inactive) | > 10 µM (inactive) | > 10 µM (inactive) | > 10 µM (inactive) | > 10 µM (inactive) | > 10 µM (inactive) | > 10 µM (inactive) | > 10 µM (inactive) | > 10 µM (inactive) | > 10 µM (inactive) | > 10 µM (inactive) |
| CSCCC(N)C(=O)NCCNc1ccc(NCCNC(=O)C(N)CCSC)c2c1C(=O)c1ccccc1C2=O (stereo not given) | 1.86 µM (inactive) | 0.6 µM (active) | 1.42 µM (inactive) | 0.351 µM (active) | 1.1 µM (active) | 1 µM (active) | 1.67 µM (inactive) | 1.41 µM (inactive) | 0.783 µM (active) | 0.409 µM (active) | 2.46 µM (inactive) | 0.659 µM (active) | 1.91 µM (inactive) | 1.16 µM (inactive) | 0.535 µM (active) | 3.38 µM (inactive) | 2.21 µM (inactive) | 1.03 µM (active) | 0.199 µM (active) | 1.08 µM (active) |
| O=c1[nH]c2cc([N+](=O)[O-])c(N(CCO)CCO)c([N+](=O)[O-])c2[nH]1 | 28.7 µM (inactive) | 44.1 µM (inactive) | 32 µM (inactive) | 21.4 µM (inactive) | 41 µM (inactive) | 41.2 µM (inactive) | 36 µM (inactive) | 35.1 µM (inactive) | 33 µM (inactive) | 46.8 µM (inactive) | 12.9 µM (inactive) | 37.4 µM (inactive) | 16.7 µM (inactive) | 52.6 µM (inactive) | 30.3 µM (inactive) | 28.6 µM (inactive) | 31.8 µM (inactive) | 29 µM (inactive) | 28.1 µM (inactive) | 24 µM (inactive) |
| COc1ccc2nc3cc(Cl)ccc3c(NCCCN(CCCl)CCCl)c2c1 | 0.0323 µM (active) | 0.0185 µM (active) | 0.0123 µM (active) | < 0.01 µM (active) | 0.0126 µM (active) | 0.0116 µM (active) | 0.0845 µM (active) | 0.0472 µM (active) | 0.0301 µM (active) | < 0.01 µM (active) | 0.11 µM (active) | 0.0164 µM (active) | 0.0107 µM (active) | 0.0316 µM (active) | 0.0119 µM (active) | 0.0408 µM (active) | < 0.01 µM (active) | < 0.01 µM (active) | 0.0105 µM (active) | 0.0385 µM (active) |
| COC(=O)c1ccc(-n2c(C)nc(=O)c(-c3ccccc3)c2C)cc1 | > 100 µM (inactive) | > 100 µM (inactive) | > 100 µM (inactive) | > 100 µM (inactive) | > 100 µM (inactive) | > 100 µM (inactive) | > 100 µM (inactive) | > 100 µM (inactive) | > 100 µM (inactive) | > 100 µM (inactive) | > 100 µM (inactive) | > 100 µM (inactive) | > 100 µM (inactive) | > 100 µM (inactive) | > 100 µM (inactive) | > 100 µM (inactive) | > 100 µM (inactive) | > 100 µM (inactive) | > 100 µM (inactive) | > 100 µM (inactive) |
| COC(=O)c1sc2c(c1C(=O)OC)/C(=N/c1ccc(OC)cc1)S/C2=N\c1ccc(OC)cc1 | 0.785 µM (active) | 0.348 µM (active) | 0.389 µM (active) | 1.33 µM (inactive) | 1.51 µM (inactive) | 0.224 µM (active) | 1.35 µM (inactive) | 0.865 µM (active) | 0.789 µM (active) | 1.08 µM (active) | 1.55 µM (inactive) | 1.55 µM (inactive) | 0.47 µM (active) | 0.853 µM (active) | 0.522 µM (active) | 1.45 µM (inactive) | 1.71 µM (inactive) | 2.05 µM (inactive) | 0.541 µM (active) | 1.74 µM (inactive) |
| Cc1ccc2c(n1)C(=O)c1ccccc1C2=O | 18.2 µM (inactive) | 27.8 µM (inactive) | 30.2 µM (inactive) | 15.8 µM (inactive) | 51.6 µM (inactive) | 31.7 µM (inactive) | 18.7 µM (inactive) | 32.5 µM (inactive) | 38 µM (inactive) | 17.3 µM (inactive) | 27.5 µM (inactive) | 31.3 µM (inactive) | 24.8 µM (inactive) | 23.3 µM (inactive) | 23.5 µM (inactive) | > 44.5 µM (inactive) | 24.4 µM (inactive) | 39.2 µM (inactive) | 21.7 µM (inactive) | 38 µM (inactive) |
